Experiments:
[1] = system: adult patients with advanced solid tumors or hematological malignancies; assay: Cardiac adverse events (CAEs) in phase I/II clinical trials of single-agent plitidepsin; type: in vivo, human; settings: for CAE group: Miscellaneous Cardiac Adverse Events / CAE group: Myocardial Injury / CAE group: Rhythm Abnormalities / CAE subgroup: Irregular Supraventricular Tachycardia / CAE subgroup: Other Myocardial Injury / CAE subgroup: Other Rhythm Abnormalities / CAE subgroup: Possible Ischemic Related / CAE subgroup: Regular Supraventricular Tachycardia / CAE: Acute myocardial infarction / CAE: Arrhythmia / CAE: Atrial fibrillation / CAE: Atrial flutter / CAE: Atrioventricular block / CAE: Cardiac amyloidosis / CAE: Cardiac failure / CAE: Cardiac troponin I increased / CAE: Cardiomegaly / CAE: Cardiomyopathy / CAE: Change in electrocardiogram / CAE: Chest pain / CAE: Ejection fraction decreased / CAE: Electrocardiogram QT prolonged / CAE: Electrocardiogram ST-T change / CAE: Heart rate irregular / CAE: Hypertension / CAE: Hypotension / CAE: Myocardial ischemia / CAE: Palpitations / CAE: Pericardial effusion / CAE: Sinus tachycardia / CAE: Supraventricular arrhythmia / CAE: Supraventricular tachycardia / CAE: Tachycardia / CAE: Ventricular hypokinesia / Total Adverse Events (cardiac): regardless of relationship
Text: Clinical trials included in this cardiac safety analysis were 4 phase I and 14 phase II studies evaluating plitidepsin as single-agent chemotherapy in a total of 578 adult patients (see details in Table 1). All available information on CAEs was retrieved from Pharma Mar’s internal Pharmacovigilance and Clinical Trials databases. The reviewed sources of information were Case Report Forms (CRFs), serious adverse event (SAE) reports, follow-up reports and supplementary reports attached or requested. Median follow-up was 12.0 months (95% CI, 7.6–13.8) for phase I trials and 12.3 months for phase II trials (95% CI, 11.0–13.7). Cutoff for data analysis was 20 November 2008.
All adverse events (AEs) with preferred terms of the Medical Dictionary for Regulatory Activities (MedDRA) that could be potentially classified as cardiac were evaluated. Additionally, events included in other systems as well in those patients with any vascular risk associated (prior history or within the trial) were also reviewed. Laboratory data were also reviewed in those cases with grade 3/4 creatine phosphokinase increase and/or troponin ([…] or troponin I) elevations. Patients’ prior history and baseline information were searched for any associated vascular risk (diabetes, hypercholesterolemia, hypertension, smoking, prior myocardial infarction or angina, etc.). All events retrieved using the aforementioned criteria were reviewed to identify and exclude from analysis potential CAEs due to obvious cancer-related symptoms (e.g., sinusal tachycardia in anemic patients, chest pain obviously related to tumor involvement of the chest). […] The information obtained was tabulated and a descriptive analysis is reported here.

[2] = Population PK exposure (Cmax, AUC0-28day) by CAE category; type: in vivo, human; settings: whole blood, simulated, mean (SD)
[3] = Other rhythm abnormalities (n = 10)

plitidepsin
CAE group: Miscellaneous Cardiac Adverse Events ([1]; All studies (n = 578)): 6 (1.0%) Patients (%) | CAE group: Myocardial Injury ([1]; All studies (n = 578)): 17 (3.0%) Patients (%) | CAE group: Rhythm Abnormalities ([1]; All studies (n = 578)): 31 (5.4%) Patients (%) | CAE subgroup: Irregular Supraventricular Tachycardia ([1]; All studies (n = 578)): 15 (2.6%) Patients (%) | CAE subgroup: Other Myocardial Injury ([1]; All studies (n = 578)): 7 (1.2%) Patients (%) | CAE subgroup: Other Rhythm Abnormalities ([1]; All studies (n = 578)): 13 (2.2%) Patients (%) | CAE subgroup: Possible Ischemic Related ([1]; All studies (n = 578)): 10 (1.7%) Patients (%) | CAE subgroup: Regular Supraventricular Tachycardia ([1]; All studies (n = 578)): 6 (1.0%) Patients (%) | CAE: Acute myocardial infarction ([1]; All studies (n = 578)): 1 (0.2%) Patients (%) | CAE: Arrhythmia ([1]; All studies (n = 578)): 1 (0.2%) Patients (%) | CAE: Atrial fibrillation ([1]; All studies (n = 578)): 11 (1.9%) Patients (%) | CAE: Atrial flutter ([1]; All studies (n = 578)): 5 (0.9%) Patients (%) | CAE: Atrioventricular block ([1]; All studies (n = 578)): 1 (0.2%) Patients (%) | CAE: Cardiac amyloidosis ([1]; All studies (n = 578)): 1 (0.2%) Patients (%) | CAE: Cardiac failure ([1]; All studies (n = 578)): 3 (0.5%) Patients (%) | CAE: Cardiac troponin I increased ([1]; All studies (n = 578)): 1 (0.2%) Patients (%) | CAE: Cardiomegaly ([1]; All studies (n = 578)): 1 (0.2%) Patients (%) | CAE: Cardiomyopathy ([1]; All studies (n = 578)): 2 (0.3%) Patients (%) | CAE: Change in electrocardiogram ([1]; All studies (n = 578)): 1 (0.2%) Patients (%) | CAE: Chest pain ([1]; All studies (n = 578)): 4 (0.7%) Patients (%) | CAE: Ejection fraction decreased ([1]; All studies (n = 578)): 1 (0.2%) Patients (%) | CAE: Electrocardiogram QT prolonged ([1]; All studies (n = 578)): 5 (0.9%) Patients (%) | CAE: Electrocardiogram ST-T change ([1]; All studies (n = 578)): 1 (0.2%) Patients (%) | CAE: Heart rate irregular ([1]; All studies (n = 578)): 1 (0.2%) Patients (%) | CAE: Hypertension ([1]; All studies (n = 578)): 1 (0.2%) Patients (%) | CAE: Hypotension ([1]; All studies (n = 578)): 2 (0.3%) Patients (%) | CAE: Myocardial ischemia ([1]; All studies (n = 578)): 3 (0.5%) Patients (%) | CAE: Palpitations ([1]; All studies (n = 578)): 6 (1.0%) Patients (%) | CAE: Pericardial effusion ([1]; All studies (n = 578)): 3 (0.5%) Patients (%) | CAE: Sinus tachycardia ([1]; All studies (n = 578)): 1 (0.2%) Patients (%) | CAE: Supraventricular arrhythmia ([1]; All studies (n = 578)): 1 (0.2%) Patients (%) | CAE: Supraventricular tachycardia ([1]; All studies (n = 578)): 1 (0.2%) Patients (%) | CAE: Tachycardia ([1]; All studies (n = 578)): 3 (0.5%) Patients (%) | CAE: Ventricular hypokinesia ([1]; All studies (n = 578)): 1 (0.2%) Patients (%) | Total Adverse Events (cardiac) ([1]; All studies (n = 578)): 46 (8.0%) Patients (%) | CAE group: Miscellaneous Cardiac Adverse Events ([1]; Phase II studies (n = 364)): 3 (0.8%) Patients (%) | CAE group: Myocardial Injury ([1]; Phase II studies (n = 364)): 14 (3.8%) Patients (%) | CAE group: Rhythm Abnormalities ([1]; Phase II studies (n = 364)): 25 (6.9%) Patients (%) | CAE subgroup: Irregular Supraventricular Tachycardia ([1]; Phase II studies (n = 364)): 14 (3.8%) Patients (%) | CAE subgroup: Other Myocardial Injury ([1]; Phase II studies (n = 364)): 6 (1.6%) Patients (%) | CAE subgroup: Other Rhythm Abnormalities ([1]; Phase II studies (n = 364)): 13 (3.6%) Patients (%) | CAE subgroup: Possible Ischemic Related ([1]; Phase II studies (n = 364)): 8 (2.2%) Patients (%) | CAE subgroup: Regular Supraventricular Tachycardia ([1]; Phase II studies (n = 364)): 1 (0.3%) Patients (%) | CAE: Acute myocardial infarction ([1]; Phase II studies (n = 364)): 1 (0.3%) Patients (%) | CAE: Arrhythmia ([1]; Phase II studies (n = 364)): 1 (0.3%) Patients (%) | CAE: Atrial fibrillation ([1]; Phase II studies (n = 364)): 10 (2.7%) Patients (%) | CAE: Atrial flutter ([1]; Phase II studies (n = 364)): 5 (1.4%) Patients (%) | CAE: Atrioventricular block ([1]; Phase II studies (n = 364)): 1 (0.3%) Patients (%) | CAE: Cardiac amyloidosis ([1]; Phase II studies (n = 364)): 1 (0.3%) Patients (%) | CAE: Cardiac failure ([1]; Phase II studies (n = 364)): 2 (0.5%) Patients (%) | CAE: Cardiac troponin I increased ([1]; Phase II studies (n = 364)): 1 (0.3%) Patients (%) | CAE: Cardiomegaly ([1]; Phase II studies (n = 364)): 1 (0.3%) Patients (%) | CAE: Cardiomyopathy ([1]; Phase II studies (n = 364)): 2 (0.5%) Patients (%) | CAE: Change in electrocardiogram ([1]; Phase II studies (n = 364)): 1 (0.3%) Patients (%) | CAE: Chest pain ([1]; Phase II studies (n = 364)): 2 (0.5%) Patients (%) | CAE: Ejection fraction decreased ([1]; Phase II studies (n = 364)): 1 (0.3%) Patients (%) | CAE: Electrocardiogram QT prolonged ([1]; Phase II studies (n = 364)): 5 (1.4%) Patients (%) | CAE: Electrocardiogram ST-T change ([1]; Phase II studies (n = 364)): 1 (0.3%) Patients (%) | CAE: Heart rate irregular ([1]; Phase II studies (n = 364)): 1 (0.3%) Patients (%) | CAE: Hypertension ([1]; Phase II studies (n = 364)): 0 (0.0%) Patients (%) | CAE: Hypotension ([1]; Phase II studies (n = 364)): 2 (0.5%) Patients (%) | CAE: Myocardial ischemia ([1]; Phase II studies (n = 364)): 3 (0.8%) Patients (%) | CAE: Palpitations ([1]; Phase II studies (n = 364)): 6 (1.6%) Patients (%) | CAE: Pericardial effusion ([1]; Phase II studies (n = 364)): 1 (0.3%) Patients (%) | CAE: Sinus tachycardia ([1]; Phase II studies (n = 364)): 1 (0.3%) Patients (%) | CAE: Supraventricular arrhythmia ([1]; Phase II studies (n = 364)): 0 (0.0%) Patients (%) | CAE: Supraventricular tachycardia ([1]; Phase II studies (n = 364)): 0 (0.0%) Patients (%) | CAE: Tachycardia ([1]; Phase II studies (n = 364)): 0 (0.0%) Patients (%) | CAE: Ventricular hypokinesia ([1]; Phase II studies (n = 364)): 1 (0.3%) Patients (%) | Total Adverse Events (cardiac) ([1]; Phase II studies (n = 364)): 37 (10.2%) Patients (%) | Plitidepsin-related CAEs: chest pain ([1]; of 15 related CAEs): 2 n | Plitidepsin-related CAEs: palpitations ([1]; of 15 related CAEs): 4 n | Patients with a CAE who had a fatal outcome as a direct consequence ([1]; related, unrelated or unknown CAEs): None | Potentially life-threatening arrhythmias (e.g., ventricular arrhythmias) ([1]; within plitidepsin trials): did not occur | AUC0–28day ([2]; Cardiac Adverse Event (n = 36)): 3236 (2955) h·ng/mL | Cmax ([2]; Cardiac Adverse Event (n = 36)): 61.0 (27.9) ng/mL | Cmax ([2]; Irregular supraventricular tachycardia (n = 12)): 63.7 (34.6) ng/mL | AUC0–28day ([2]; Myocardial Injury (n = 11)): 4077 (3653) h·ng/mL | Cmax ([2]; Myocardial Injury (n = 11)): 69.5 (28.2) ng/mL | Cmax ([2]; Other myocardial injury (n = 4)): 64.7 (30.6) ng/mL | AUC0–28day [2, 3]: 2064 (1449) h·ng/mL | Cmax [2, 3]: 56.8 (26.2) ng/mL | Cmax ([2]; Possible ischemic related (n = 7)): 72.2 (28.8) ng/mL | Cmax ([2]; Regular supraventricular tachycardia (n = 6)): 57.2 (23.1) ng/mL | Cmax ([2]; Rhythm Abnormalities (n = 25)): 61.5 (29.8) ng/mL
